Measurements from US12522564B2, “Polymorphs of elafibranor” (GENFIT, priority 2021, dated 2026).

Key:
animal disease models = conditions: cited from earlier work
[1] = system: patients and healthy volunteers; conditions: over 800 patients and healthy volunteers; cited from earlier work
[2] = up to 2-year carcinogenicity studies; cited from earlier work
[3] = Saturation concentration of elafibranor in the crystallization solvent; assay type: physicochemical; conditions: room temperature

CSc1ccc(C(=O)/C=C/c2cc(C)c(OC(C)(C)C(=O)O)c(C)c2)cc1 [Elafibranor, 2-(2,6-dimethyl-4-{3-[4-(methylsulfanyl)phenyl]-3-oxopropen-1-yl}phenoxy)-2-methylpropanoic acid]
histological NASH parameters (steatosis, inflammation, fibrosis) (animal disease models): efficacy
HDL-C levels [1]: increase
insulin sensitivity and glucose homeostasis [1]: improvement
markers of liver dysfunction, including ALAT, ASAT, γGT, ALP [1]: improvement
plasma triglycerides and LDL-C [1]: decrease
safety in full toxicological package [2]: absence of safety concern
saturation concentration of elafibranor in the solvent ([3]; N,N-dimethylacetamide): 11.9 mg/mL
saturation concentration of elafibranor in the solvent ([3]; ethanol): 28.7 mg/mL
saturation concentration of elafibranor in the solvent ([3]; methanol): 17.7 mg/mL
